Laboratory results published in patent US11046679B2, “Indoleamine 2,3-dioxygenase inhibitor and application” (Nanjing TransThera Biosciences Co. Ltd., priority 2017, dated 2021).
Like-named read-outs stand apart in the source and are kept apart here.

Columns and labels:
IDO1 = molecular target: T1, IDO1 (Homo sapiens, UniProt P14902); experiment: IDO1 enzymology evaluation method; type: biochemical; conditions: IDO-1 enzyme, dynamic OD at 321 nm, IC50 fitted with GraphPad Prism
T1 construct: purchased CP lot number: 20160706
T1 sequence (P14902 whole entry, species assumed): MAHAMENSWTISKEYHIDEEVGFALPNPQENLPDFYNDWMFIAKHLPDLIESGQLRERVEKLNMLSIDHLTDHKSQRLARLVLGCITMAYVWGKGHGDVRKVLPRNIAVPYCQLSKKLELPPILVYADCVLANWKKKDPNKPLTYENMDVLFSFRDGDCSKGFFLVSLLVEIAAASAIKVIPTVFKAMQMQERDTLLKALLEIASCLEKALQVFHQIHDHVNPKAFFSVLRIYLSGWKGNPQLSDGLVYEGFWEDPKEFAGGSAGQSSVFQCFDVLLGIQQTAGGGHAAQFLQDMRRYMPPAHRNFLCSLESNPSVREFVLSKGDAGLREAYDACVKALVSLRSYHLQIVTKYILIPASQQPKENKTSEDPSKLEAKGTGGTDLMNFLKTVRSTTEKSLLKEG
Procedure: IDO1 Enzymology Evaluation Method
(§1) Test Sample: Compounds Prepared in the Corresponding Examples of the Present Invention
Preparation of compound: The compound was formulated into 1 mM compound mother liquor in DMSO, and the compound was diluted 3-fold in DMSO to obtain a compound concentration dilution mother solution (100×) of 9 concentration gradients.
Dosing inhibition: 2 μL of 100× compound dilution mother solution was added to a 96-well plate, added with 100 μL of enzyme solution (IDO-1), and incubated for 10 min at room temperature. 100% DMSO was used as a negative control and NLG-919 was used as a positive control. Incubation was performed with 100 μL of substrate mixture (L-tryptophan, ascorbate, methylene blue, and catalase).
Detection: Dynamic OD data at 321 nm was detected using Spectramax.
Calculation: The inhibition rate was calculated according to the following formula.
The curve slope was fitted using the Spectramax program, and IC50 was fitted using GraphPad Prism 5.0.

Hela cell = Hela cell evaluation method (cytological test, rhIFN-γ stimulated); type: cell-based; conditions: Hela cells with 50 ng/mL rhIFN-γ, incubated 48 hours, OD at 480 nm
Procedure: Hela Cell Evaluation Method
as §1
Helacell strain (Purchased from ATCC, Cat. No. CCL-2, 4965442)
Recombinant Human IFN-γ (rhIFN-γ, Purchased from Peprotech, Cat. No. 300-02)
Cell plating: Hela cell suspension was prepared from fresh MEM cell culture medium, added to a 96-well cell culture plate at 5000 cells/well, and cultured at 5% carbon dioxide at 37° C. overnight.
Preparation of compound: The compound was formulated into 2 mM in DMSO, and the compound was diluted 5-fold in DMSO to obtain a compound dilution mother solution (200×) of 6 to 9 concentration gradients, and a 10× dilution solution was prepared in proportion with cell culture medium or liquid.
Dosing incubation: After the cells were plated overnight, 10 μL of the corresponding compound dilution mother solution (10×) and 10 μL of 500 ng/mL rhIFN-γ were added to each well, and the final volume of each well was 100 μL. The negative control wells contained 100 μL of 0.5% DMSO cell culture medium and Hela cells. 50 ng/mL of rhIFN-γ were filled into negative control wells, which are used as positive control. Background control wells contained 100 μL of cell culture medium. Incubation was performed for 48 hours in a 37° C. incubator and cell morphology was observed under an inverted microscope.
Detection: 80 μL of the supernatant was added to a Corning 3894 plate, and 10 μL of 6.1 N trichloroacetic acid was added to each well. The plate was shaken for 2 minutes, placed in a 50° C. incubator to react for 30 minutes, centrifuged at 2500 rpm for 10 minutes. 70 μL of the supernatant was transferred to a Corning 3635 UV plate, added with 70 μL of the reaction solution and the mixture was shaken for 2 minutes to make the reaction mixture uniform. The OD value at 480 nm was measured using EnSpire (PE).

[1] = Rat PK evaluation of the compounds; type: in vivo; conditions: SD rats; for Cl_obs iv / Vz_obs iv / tz1/2 iv / tZ1/2 PO / bioavailability / AUC(0-inf): n = 3; for tZ1/2 PO: PO (intragastric) 5 mg/kg; for bioavailability / AUC(0-inf) / Tmax: Sprague-Dawley, rat, plasma; for Tmax: n = 3, median
Procedure: Example 3: Rat PK Evaluation of the Compounds
(§2) Animal administration and sample collection: intragastric administration: Compounds 2 and 13 were dissolved in 10% DMA+10% (30% Solutol)+80% physiological saline to prepare a solution. Compound 15 was dissolved in 10% DMA+10% PEG400+80% physiological saline to prepare a solution. The SD rats were intragastrically administered at a dose of 5.0 mg/kg. The time of blood collection was: 15 min, 30 min, 1 h, 2 h, 4 h, 6 h, 8 h and 24 h.
as §2, with “Intravenous” for “Animal administration and sample collection: intragastric”, “intravenous” for “intragastrically”, “1” for “5.0”, “was: 5 min,” for “was:”
The animals were fixed, the tail was heated in a water bath 10 min before each time point, and about 100 μL of blood was collected through the tail vein, and the blood was then placed in an anti-coagulation tube containing EDTA-K2. Blood samples were centrifuged at 8000 rpm for 6 min at 4° C. to obtain plasma samples, which must be prepared within 30 min of blood collection. The plasma samples were stored at −80° C. in a freezer before test.
Take the sample to be tested from the refrigerator (−80° C.), melted at room temperature and vortexed for 5 min. 20 μL of plasma sample was accurately pipetted into a 1.5 mL centrifuge tube; added with 200 μL of internal standard working solution at a concentration of 50 ng/mL and mixed well. The mixture was vortexed for 5 min (12000 rpm) and centrifuge for 5 min (12000 rpm). 50 μL of supernatant was accurately pipetted into 96-well plates pre-filled with 150 μL/well of water; vortexed for 5 min to mix well. The inject volume was 20 μL and LC-MS/MS was performed.
The concentration of the test sample was output by using Analyst 1.6.3 from AB. The mean, standard deviation, coefficient of variation and other parameters were calculated by Microsoft Excel (direct output from Analyst 1.6.3 is not calculated). PK parameters are calculated by using Pharsight Phoenix 6.1 software NCA (Tmax is the median).

[2] = IV 1 mg/kg, read-out: AUCinf iv
[3] = PO 5 mg/kg, read-out: AUCinf PO

Compound: O=S1(=O)CCC(Nc2nonc2C(=NO)Nc2ccc(F)c(Br)c2)C1 (single isomer, unassigned) [Compound 15-P1]
- IC50 (IDO1): 200 nM
- IC50 (Hela cell): 19.4 nM

Compound: ON=C(Nc1ccc(F)c(Br)c1)c1nonc1NC1CCOCC1 [Compound 1, N-(3-bromo-4-fluorophenyl)-N′-hydroxy-4-((tetrahydro-2H-pyran-4-yl)amino)-1,2,5-oxadiazol-3-formamidine]
- IC50 (Hela cell; Homo sapiens, HeLa, 48 h): 109 nM

Compound: CS(=O)(=O)N1CCC(Nc2nonc2C(=NO)Nc2ccc(F)c(Br)c2)CC1 [Compound 3, N-(3-bromo-4-fluorophenyl)-N′-hydroxy-4-((1-(methylsulfonyl)piperidin-4-yl)amino)-1,2,5-oxadiazol-3-formamidine]
- IC50 (Hela cell; Homo sapiens, HeLa, 48 h): 71 nM

Compound: CS(=O)(=O)N1CC2(CC(Nc3nonc3C(=NO)Nc3ccc(F)c(Br)c3)C2)C1 [Compound 16, N-(3-bromo-4-fluorophenyl)-N′-hydroxy-4-((2-(methylsulfonyl)-2-azaspiro[3.3]heptan-6-yl)amino)-1,2,5-oxadiazol-3-formamidine]
- IC50 (IDO1): 170 nM
- IC50 (Hela cell; Homo sapiens, HeLa, 48 h): 78.3 nM

Compound: ON=C(Nc1ccc(F)c(Br)c1)c1nonc1NC1CC2(COC2)C1 [Compound 12, 4-((2-oxaspiro[3.3]heptan-6-yl)amino)-N-(3-bromo-4-fluorophenyl)-N′-hydroxy-1,2,5-oxadiazol-3-carboxamidine]
- IC50 (Hela cell; Homo sapiens, HeLa, 48 h): 105 nM

Compound: O=S1(=O)CCC(Nc2nonc2C(=NO)Nc2ccc(F)c(Br)c2)CC1 [Compound 2, N-(3-bromo-4-fluorophenyl)-4-((1,1-dioxotetrahydro-2H-thiopyran-4-yl)amino)-N′-hydroxy-1,2,5-oxadiazol-3-formamidine]
- Cl_obs iv ([1]; IV 1 mg/kg): 32.8 mL/min/kg
- Vz_obs iv ([1]; IV 1 mg/kg): 5.02 L/kg
- tz1/2 iv ([1]; IV 1 mg/kg): 1.82 h
- tZ1/2 PO [1]: 3.81 h
- bioavailability ([1]; IV 1 mg/kg, PO 5 mg/kg): 62.2%
- AUC(0-inf) [1, 2]: 521 ng·h/mL
- Tmax ([1]; PO 5 mg/kg): 15 min
- AUC(0-inf) [1, 3]: 1620 ng·h/mL
- IC50 (Hela cell; Homo sapiens, HeLa, 48 h): 39.7 nM

Compound: O=S1(=O)CCC(Nc2nonc2C(=NO)Nc2ccc(F)c(Br)c2)C1 (stereo not shown) [Compound 15, N-(3-bromo-4-fluorophenyl)-4-((1,1-dioxo-tetrahydrothiophen-3-yl)amino)-N′-hydroxy-1,2,5-oxadiazol-3-formamidine]
- IC50 (IDO1): 220 nM
- Cl_obs iv ([1]; IV 1 mg/kg): 45.5 mL/min/kg
- Vz_obs iv ([1]; IV 1 mg/kg): 4.03 L/kg
- tz1/2 iv ([1]; IV 1 mg/kg): 1.03 h
- tZ1/2 PO [1]: 3.40 h
- bioavailability ([1]; IV 1 mg/kg, PO 5 mg/kg): 28.1%
- AUC(0-inf) [1, 2]: 367 ng·h/mL
- Tmax ([1]; PO 5 mg/kg): 60 min
- AUC(0-inf) [1, 3]: 516 ng·h/mL
- IC50 (Hela cell; Homo sapiens, HeLa, 48 h): 51.6 nM

Compound: NS(=O)(=O)N1CCC(Nc2nonc2C(=NO)Nc2ccc(F)c(Br)c2)CC1 [Compound 4]
- IC50 (Hela cell; Homo sapiens, HeLa, 48 h): 78.8 nM

Compound: O=S1(=O)CCC(Nc2nonc2C(=NO)Nc2ccc(F)c(Br)c2)C1 (single isomer, unassigned) [Compound 15-P2]
- IC50 (IDO1): 240 nM
- IC50 (Hela cell): 119 nM

Compound: O=S1(=O)CC(Nc2nonc2C(=NO)Nc2ccc(F)c(Br)c2)C1 [Compound 26, N-(3-bromo-4-fluorophenyl)-4-((1,1-dioxothietan-3-yl)amino)-N′-hydroxy-1,2,5-oxadiazol-3-formamidine]
- IC50 (Hela cell; Homo sapiens, HeLa, 48 h): 76 nM

Compound: O=S1(=O)CC2(CC(Nc3nonc3C(=NO)Nc3ccc(F)c(Br)c3)C2)C1 [Compound 13, N-(3-bromo-4-fluorophenyl)-4-((2,2-dioxo-2-thiaspiro[3.3]heptan-6-yl)amino)-N′-hydroxy-1,2,5-oxadiazol-3-formamidine]
- IC50 (IDO1): 220 nM
- Cl_obs iv ([1]; IV 1 mg/kg): 53.3 mL/min/kg
- Vz_obs iv ([1]; IV 1 mg/kg): 9.00 L/kg
- tz1/2 iv ([1]; IV 1 mg/kg): 2.00 h
- tZ1/2 PO [1]: 1.67 h
- bioavailability ([1]; IV 1 mg/kg, PO 5 mg/kg): 36.9%
- AUC(0-inf) [1, 2]: 336 ng·h/mL
- Tmax ([1]; PO 5 mg/kg): 15 min
- AUC(0-inf) [1, 3]: 620 ng·h/mL
- IC50 (Hela cell; Homo sapiens, HeLa, 48 h): 68.6 nM
